# Data from US8962842B2, “2-pyridone antimicrobial compositions” (priority 2010, dated 2015).
# Where two headings read alike, the source gives them in different places.
# Experiment: Mouse pharmacokinetics, intravenous or oral 10 mg/kg (Table 9)
# Assay type: in vivo
# Conditions: mice, plasma; for half-life: read-out: Elimination Half life (converted); for bioavailability: p.o. vs i.v.
# Procedure: Groups of 21 mice were treated with select examples at 10 mg/kg. Mice were treated either intravenously or orally (by gavage). At predetermined time points (0.25, 0.5, 1, 2, 4, 8 and 24 hours), 3 mice were sacrificed and blood samples drawn by cardiac puncture. Plasma was obtained by centrifugation and stored at −80° C. Plasma samples were analyzed by LC-MS for remaining amounts of compounds.
Compound,"half-life (iv, i.v.) [h]",AUC(0-inf) (iv) [ng·h/mL],Cmax (iv) [ng/mL],bioavailability (po) [%],"half-life (po, p.o.) [h]",AUC(0-inf) (po) [ng·h/mL],Cmax (po) [ng/mL]
Cc1c(-c2ccc(N)c(F)c2)ccn2c(=O)c(C(=O)[O-])cc(C3CC3)c12.[K+] [Ex. 2 K salt],1.48,1340,2100,47.8,1.51,642,394
Cc1c(-c2ccc(N)nc2)ccn2c(=O)c(C(=O)[O-])cc(C3CC3)c12.[K+] [Ex. 21 K salt],1.31,–,467,–,2.11,471,242
Cc1c(-c2ccc3[nH]ncc3c2)ccn2c(=O)c(C(=O)[O-])cc(C3CC3)c12.[K+] [Ex. 23 K salt],1.16,2040,3430,85.9,0.988,1750,866
Cc1c(-c2cc(F)c(N)cc2F)ccn2c(=O)c(C(=O)[O-])cc(C3CC3)c12.[K+] [Ex. 28 K salt],1.07,1650,2850,43,3.33,710,227
Cc1c(-c2ccc(O)cc2)ccn2c(=O)c(C(=O)[O-])cc(C3CC3)c12.[K+] [Ex. 46 K salt],1.07,474,1060,82.1,4.16,389,156
